The record followed here is ChEMBL document CHEMBL3639203, “Macrocyclic indoles as hepatitis C virus inhibitors” (2013).

This test concerns the target Genome polyprotein (Hepatitis C virus genotype 1b (strain HC-J4) (HCV), UniProt O92972). As to the kind of experiment: Inhibition Assay: Inhibition assay using HCV NS5B.

Sequence of Genome polyprotein (O92972 2420-3010 limits assumed): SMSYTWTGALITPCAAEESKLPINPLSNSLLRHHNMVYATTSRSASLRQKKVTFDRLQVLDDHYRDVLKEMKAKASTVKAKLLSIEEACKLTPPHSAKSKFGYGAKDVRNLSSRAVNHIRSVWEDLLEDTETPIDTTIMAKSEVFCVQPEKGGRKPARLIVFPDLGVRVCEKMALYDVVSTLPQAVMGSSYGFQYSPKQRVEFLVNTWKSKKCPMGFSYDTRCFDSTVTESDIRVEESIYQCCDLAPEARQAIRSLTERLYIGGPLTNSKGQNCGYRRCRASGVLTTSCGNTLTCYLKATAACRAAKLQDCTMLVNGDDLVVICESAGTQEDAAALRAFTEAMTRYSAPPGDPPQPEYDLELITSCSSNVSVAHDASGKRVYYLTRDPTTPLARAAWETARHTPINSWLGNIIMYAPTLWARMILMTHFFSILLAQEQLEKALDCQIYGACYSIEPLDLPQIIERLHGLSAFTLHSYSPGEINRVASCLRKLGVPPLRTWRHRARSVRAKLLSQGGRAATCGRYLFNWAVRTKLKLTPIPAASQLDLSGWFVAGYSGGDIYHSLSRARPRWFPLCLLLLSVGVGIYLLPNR

What is called IC50 is the point on the concentration scale where inhibition reaches its midpoint. Consider `CN1C/C=C\CCNC(=O)Cn2c(-c3ccc(Cl)cc3)c(C3CCCCC3)c3ccc(cc32)C(=O)NS1(=O)=O`, for which the IC50 is 170 nM.
